{"source": "patent US9206123B2", "about": "“Prodrugs of inhibitors of plasma kallikrein” (ActiveSite Pharmaceuticals, Inc., priority 2009, dated 2015)", "molecules": {"B1": {"name": "C1-INH: the major endogenous inhibitor of PK (protein, UniProt P05155 23-500, looked up)", "Plasma protease C1 inhibitor": "NPNATSSSSQDPESLQDRGEGKVATTVISKMLFVEPILEVSSLPTTNSTTNSATKITANTTDEPTTQPTTEPTTQPTIQPTQPTTQLPTDSPTQPTTGSFCPGPVTLCSDLESHSTEAVLGDALVDFSLKLYHAFSAMKKVETNMAFSPFSIASLLTQVLLGAGENTKTNLESILSYPKDFTCVHQALKGFTTKGVTSVSQIFHSPDLAIRDTFVNASRTLYSSSPRVLSNNSDANLELINTWVAKNTNNKISRLLDSLPSDTRLVLLNAIYLSAKWKTTFDPKKTRMEPFHFKNSVIKVPMMNSKKYPVAHFIDQTLKAKVGQLQLSHNLSLVILVPQNLKHRLEDMEQALSPSVFKAIMEKLEMSKFQPTLLTLPRIKVTTSQDMLSIMEKLEFFDFSYDLNLCGLTEDPDLQVSAMQHQTVLELTETGVEAAAASAISVARTLLVFEVQQPFLFVLWDQQHKFPVFMGRVYDPRA"}}, "key": {"[1]": {"tested_on": "retinal vascular permeability", "conditions": "angiotensin-II-treated rodents; Phipps et al. 2009; cited from earlier work"}, "sepsis [2]": {"tested_on": "sepsis", "conditions": "LPS or bacterial induced sepsis in animals; cited from earlier work"}, "[3]": {"target": "T1, Human plasma kallikrein (PK) (Homo sapiens, UniProt P03952)", "T1 construct": "purchased Enzyme Research Laboratories (Gary, Ind.)", "T1 sequence (P03952 391-638 limits assumed)": "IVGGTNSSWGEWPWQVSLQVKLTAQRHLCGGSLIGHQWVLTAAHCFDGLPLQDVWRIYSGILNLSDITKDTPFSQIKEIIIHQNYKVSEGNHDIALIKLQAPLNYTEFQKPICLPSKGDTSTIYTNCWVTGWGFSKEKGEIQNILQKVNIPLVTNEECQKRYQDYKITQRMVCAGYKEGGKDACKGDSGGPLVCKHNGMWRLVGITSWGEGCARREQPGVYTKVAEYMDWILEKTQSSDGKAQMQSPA", "T1 sequence (P03952 20-390 partner limits assumed)": "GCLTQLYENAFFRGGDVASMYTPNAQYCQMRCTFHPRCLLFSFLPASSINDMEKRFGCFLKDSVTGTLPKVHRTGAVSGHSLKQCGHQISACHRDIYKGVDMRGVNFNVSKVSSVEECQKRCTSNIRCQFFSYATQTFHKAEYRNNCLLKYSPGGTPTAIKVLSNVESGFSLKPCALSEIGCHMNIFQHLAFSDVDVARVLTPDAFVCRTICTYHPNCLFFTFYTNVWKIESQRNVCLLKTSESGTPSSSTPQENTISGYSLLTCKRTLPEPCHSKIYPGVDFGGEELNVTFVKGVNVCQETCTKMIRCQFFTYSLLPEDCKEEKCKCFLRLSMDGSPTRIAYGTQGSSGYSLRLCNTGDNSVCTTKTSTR", "test": "Human plasma kallikrein (PK) enzymatic inhibition assay, substrate H-D-Pro-Phe-Arg-pNA", "type": "biochemical", "conditions": "corrected Ki from Ki,app; 2 nM PK, 0.05 M HEPES pH 7.5, Km 0.33 mM", "description": "Human plasma kallikrein (PK) was obtained from Enzyme Research Laboratories (Gary, Ind.). The enzymatic activity of PK was assayed using the synthetic peptide substrate H-D-Pro-Phe-Arg-pNA (Bachem, Peninsula City, Calif.) with the cleavage of the substrate by the enzyme resulting in an increase in A405, measured using a Molecular Devices Vmax Kinetic Microplate Reader. The uninhibited (control) activity of PK was determined by adding 190 μl of PK solution (2 nM in 0.05 M HEPES, pH 7.5, 0.01% Triton X-100) to 10 μl of H-D-Pro-Phe-Arg-pNA (2 mM in DMSO) in individual microtiter plate wells, mixed immediately by shaking, and the rate of increase in absorbance at 405 nm (A405) determined over 120-180 sec. In parallel, compounds of general formula V were mixed in separate wells with the synthetic substrate to attain final concentrations of between 0.01-10 μM in the final 200 μl reaction mixture, and the reaction initiated by the addition of 190 μl of the PK solution. A diminished rate of cleavage in the presence of a compound of general formula V denotes inhibition of PK activity, and the apparent inhibition constant (Ki,app) of the interaction can be determined by using the following equation— Ki,app=[I]/(PKControl/PKI−1) where [I]=concentration of inhibitory compound, PKcontrol=rate of substrate cleavage by uninhibited PK, PKI=rate of substrate cleavage by PK in the presence of inhibitory compound.\nThe corrected Ki of the interaction can be obtained as follows from the calculated Ki,app— Ki=Ki,app/([S]/Km+1) Where [S]=concentration of synthetic substrate, and Km=Michaelis constant of synthetic substrate for PK, in this case determined experimentally to be 0.33 mM under these conditions."}, "ischemic stroke": {"tested_on": "ischemic stroke", "conditions": "rat model of ischemic stroke; cited from earlier work"}, "hemorrhagic stroke": {"tested_on": "hemorrhagic stroke", "conditions": "model of hemorrhagic stroke; cited from earlier work"}, "hereditary angioedema": {"tested_on": "hereditary angioedema", "conditions": "patients with hereditary angioedema; cited from earlier work"}, "arthritis": {"tested_on": "arthritis", "conditions": "rat models of arthritis; cited from earlier work"}, "[4]": {"tested_on": "retinal vascular permeability", "test": "Angiotensin-II infusion model, retinal vascular permeability by vitreous fluorescein fluorophotometry", "type": "in vivo, Sprague-Dawley rats", "conditions": "twice-daily oral gavage for five days", "description": "Continuous infusion of the vasoconstrictor peptide angiotensin-II in Sprague-Dawley rats over 3-7 days using subcutaneously implanted Alzet minipumps results in elevated blood pressure, and is accompanied by increased retinal vascular permeability, which can be measured using the technique of vitreous fluorescein fluorophotometry, as described in the prior art (Clermont, A. C., et al (2006) Invest Ophthalmol V is Sci.; 47: 2701-8). […] Inhibition of the excess retinal vascular permeability in this animal model following administration of compounds of the present invention via oral, subcutaneous, topical or intravitreal routes thus provides evidence of inhibition of plasma kallikrein in vivo."}, "sepsis [5]": {"tested_on": "sepsis", "conditions": "sepsis patients; cited from earlier work"}, "[6]": {"tested_on": "middle cerebral artery occlusion", "conditions": "mouse model of middle cerebral artery occlusion; cited from earlier work"}}, "note": "Entries after “also recorded” stand apart in the source; their conditions may differ. Non-standard residues stand in square brackets, D forms with d. *: point of attachment. CH2Cl = ClC*"}
{"molecule": "Hoe-140", "values": [{"measurement": "effect on retinal vascular permeability", "setting": "[1]", "result": "reduce retinal vascular permeability"}]}
{"molecule": "H-[dP]-Phe-Arg-CH2Cl [reference compound]", "values": [{"measurement": "effect on vascular permeability and lesions", "setting": "sepsis [2]", "result": "reduce vascular permeability in multiple organs and reduce lesions"}]}
{"molecule": "Cc1cc(C(=O)NCc2ccc(C(=N)N)cc2)c(C)n1-c1ccc(Cl)cc1", "note": "[Example 12, N-[(4-carbamimidoylphenyl)methyl]-1-(4-chlorophenyl)-2,5-dimethyl-pyrrole-3-carboxamide]", "values": [{"measurement": "Ki", "setting": "[3]", "result": 7, "unit": "nM"}]}
{"molecule": "Cc1cc(C(=O)NCc2ccc(C(=N)N)cc2)c(C)n1-c1cccnc1", "note": "[N-[(4-carbamimidoylphenyl)methyl]-2,5-dimethyl-1-(3-pyridyl)pyrrole-3-carboxamide]", "values": [{"measurement": "Ki", "setting": "[3]", "result": 46, "unit": "nM"}]}
{"molecule": "N=C(N)c1ccc(CNC(=O)c2cnn(Cc3ccccc3)c2)cc1", "note": "[ASP-440]", "values": [{"measurement": "effect on retinal vascular permeability", "setting": "[1]", "result": "reduce retinal vascular permeability; also recorded: effective in reducing retinal vascular permeability"}, {"measurement": "effect on infarction volume and cerebrovascular edema", "setting": "ischemic stroke", "result": "reduce infarction volume and cerebrovascular edema"}, {"measurement": "effect on expansion of intracerebral hemorrhage", "setting": "hemorrhagic stroke", "result": "reduce"}]}
{"molecule": "NC(N)=NCCC[C@@H](N)C(=O)N[C@@H](CCCN=C(N)N)C(=O)N1CCC[C@H]1C(=O)N1C[C@H](O)C[C@H]1C(=O)NCC(=O)N[C@@H](Cc1cccs1)C(=O)N[C@@H](CO)C(=O)N1Cc2ccccc2C[C@@H]1C(=O)N1[C@H](C(=O)N[C@@H](CCCN=C(N)N)C(=O)O)C[C@@H]2CCCC[C@@H]21", "note": "[icatibant]", "values": [{"measurement": "effect on edema / hereditary angioedema", "setting": "hereditary angioedema", "result": "effective in treating hereditary angioedema"}]}
{"molecule": "Cc1cc(C(=O)NCc2ccc(C(=N)N)cc2)c(C)n1-c1ccc(F)cc1", "note": "[Example 11, N-[(4-carbamimidoylphenyl)methyl]-1-(4-fluorophenyl)-2,5-dimethyl-pyrrole-3-carboxamide]", "values": [{"measurement": "Ki", "setting": "[3]", "result": 13, "unit": "nM"}]}
{"molecule": "Cc1cc(C(=O)NCc2ccc(C(=N)N)cc2)c(C)n1-c1ccc2c(c1)OCCO2", "note": "[N-[(4-carbamimidoylphenyl)methyl]-1-(2,3-dihydro-1,4-benzodioxin-6-yl)-2,5-dimethyl-pyrrole-3-carboxamide]", "values": [{"measurement": "Ki", "setting": "[3]", "result": 14, "unit": "nM"}]}
{"molecule": "Cc1cc(C(=O)NCc2ccc(C(=N)N)cc2)c(C)n1-c1ccccn1", "note": "[N-[(4-carbamimidoylphenyl)methyl]-2,5-dimethyl-1-(2-pyridyl)pyrrole-3-carboxamide]", "values": [{"measurement": "Ki", "setting": "[3]", "result": 35, "unit": "nM"}]}
{"molecule": "COc1ccc(-n2c(C)cc(C(=O)NCc3ccc(C(=N)N)cc3)c2C)cc1", "note": "[Example 13, N-[(4-carbamimidoylphenyl)methyl]-1-(4-methoxyphenyl)-2,5-dimethyl-pyrrole-3-carboxamide]", "values": [{"measurement": "Ki", "setting": "[3]", "result": 17, "unit": "nM"}]}
{"molecule": "Cl.NCC1CCC(C(=O)N[C@@H](Cc2ccccc2)C(=O)Nc2ccc(CC(=O)O)cc2)CC1", "note": "(stereo partly drawn) [PKSI-527]", "values": [{"measurement": "effect on joint swelling", "setting": "arthritis", "result": "reduce joint swelling"}]}
{"molecule": "Cc1cc(C(=O)NCc2ccc(C(=N)N)cc2)c(C)n1-c1nccs1", "note": "[N-[(4-carbamimidoylphenyl)methyl]-2,5-dimethyl-1-thiazol-2-yl-pyrrole-3-carboxamide]", "values": [{"measurement": "Ki", "setting": "[3]", "result": 68, "unit": "nM"}]}
{"molecule": "COC(=O)/N=C(\\N)c1ccc(CNC(=O)c2cc(C)n(-c3ccc(F)cc3)c2C)cc1", "note": "[Example 4, (Z)-methyl amino-(4-((1-(4-fluorophenyl)-2,5-dimethyl-pyrrole-3-carbonylamino)methyl)phenyl)methylenecarbamate]", "values": [{"measurement": "reduction of retinal vascular permeability", "setting": "[4]", "result": 55, "unit": "%"}]}
{"molecule": "B1", "values": [{"measurement": "effect on vascular permeability and lesions", "setting": "sepsis [2]", "result": "reduce vascular permeability in multiple organs and reduce lesions"}, {"measurement": "clinical outcome", "setting": "sepsis [5]", "result": "Clinical improvement"}, {"measurement": "effect on infarct size", "setting": "[6]", "result": "reduced infarct size"}]}
